Drawing on patent publication US20250346593A1, “IMIDAZO(1,2-1)PYRIDINE DERIVATIVES AS RIPK2 INHIBITORS” (Interline Therapeutics, Inc., priority 2022, published 2025), this text covers IC50 for 29 molecules.

Test [1] deals with NF-κB pathway (SEAP) in THP1-Dual cells. The experiment in a line: THP-1 Dual cell SEAP assay (L18-MDP stimulated). The format is cell-based. As to conditions: read-out: NFkB THP1 IC50.
Test [2] addresses GST-RIPK2 fusion protein (human RIPK2 amino acids 1-310) (Homo sapiens (Human), UniProt O43353). The experiment in a line: RIPK2 binding competition assay (TR-FRET, Tracer 199). On the technique in general: In TR-FRET formats the signal depends on donor and acceptor labels being close together.
The mark [3] stands for this setting: read-out: RIPK2 IC50, RIPK2 binding competition assay.

Where two headings read alike, the source gives them in different places.

For orientation: IC50 means the concentration that gives 50% inhibition.

Chain of GST-RIPK2 fusion protein (human RIPK2 amino acids 1-310) (O43353 1-310): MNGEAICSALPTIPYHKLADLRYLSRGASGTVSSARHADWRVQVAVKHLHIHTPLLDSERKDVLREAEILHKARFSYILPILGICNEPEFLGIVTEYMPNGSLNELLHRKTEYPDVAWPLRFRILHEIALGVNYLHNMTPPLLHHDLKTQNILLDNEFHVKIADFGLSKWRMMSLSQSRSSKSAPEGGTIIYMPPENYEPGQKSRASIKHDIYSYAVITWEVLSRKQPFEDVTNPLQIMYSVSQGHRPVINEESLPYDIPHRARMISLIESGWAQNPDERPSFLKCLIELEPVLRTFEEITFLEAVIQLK

Turning to `CCOc1cc2ncc(-c3cc(F)nc(NCCCO)c3)n2cc1C1(F)CCN(C)CC1` [Example 242, 3-({4-[7-ethoxy-6-(4-fluoro-1-methylpiperidin-4-yl)imidazo[1,2-a]pyridin-3-yl]-6-fluoropyridin-2-yl}amino)propan-1-ol], the IC50 in test [1] (Homo sapiens, THP1-Dual) was below 50 nM; in test [2] (setting [3]) it was below 1 nM.
For `CCCS(=O)(=O)Nc1cc(-c2cnc3cc(OC)c(S(=O)(=O)C(C)(C)C)cn23)ccc1OC(F)F` [Example 271, N-(5-(6-(tert-butylsulfonyl)-7-methoxyimidazo[1,2-a]pyridin-3-yl)-2-(difluoromethoxy)phenyl) propane-1-sulfonamide], the IC50 in test [1] (Homo sapiens, THP1-Dual) is below 50 nM; in test [2], 1 to 2.5 nM.
On the same counts, the results for `COc1cc2ncc(-c3cc(F)c(OC)c(OCCO)c3)n2cc1S(=O)(=O)C(C)(C)C` [Example 338, 2-(5-(6-(tert-butylsulfonyl)-7-methoxyimidazo[1,2-a]pyridin-3-yl)-3-fluoro-2-methoxyphenoxy)ethan-1-ol] are above 1000 nM and 2.5 to 20 nM.
In the case of `COc1cc2ncc(-c3cc(C)c(OC)c(Cl)n3)n2cc1S(=O)(=O)C(C)(C)C` [Example 55, 6-(tert-butylsulfonyl)-3-(6-chloro-5-methoxy-4-methylpyridin-2-yl)-7-methoxyimidazo[1,2-a]pyridine], the half-inhibitory concentration (IC50) is above 1000 nM in test [1] (Homo sapiens, THP1-Dual) and above 20 nM in test [2] (setting [3]).
Regarding `COc1cc2ncc(-c3cc(F)nc(N[C@@H]4CC[C@H](O)C4)c3)n2cc1S(=O)(=O)C(C)(C)C` (racemic) [Example 192, rac-(1R,3S)-3-((4-(6-(tert-butylsulfonyl)-7-methoxyimidazo[1,2-a]pyridin-3-yl)-6-fluoropyridin-2-yl)amino)cyclopentan-1-ol], the IC50 in test [1] (Homo sapiens, THP1-Dual) was below 50 nM; in test [2], below 1 nM.
Regarding `COc1cc2ncc(-c3ccc(N)c(C#N)c3F)n2cc1S(=O)(=O)C(C)(C)C` [Example 91, 6-amino-3-(6-(tert-butylsulfonyl)-7-methoxyimidazo[1,2-a]pyridin-3-yl)-2-fluorobenzonitrile], the IC50 in test [1] (Homo sapiens, THP1-Dual) is above 1000 nM; in test [2] it was 2.5 to 20 nM.
Turning to `COc1cc2ncc(-c3cc(F)c(N)nc3F)n2cc1S(=O)(=O)C(C)(C)C` [Example 82, 5-(6-(tert-butylsulfonyl)-7-methoxyimidazo[1,2-a]pyridin-3-yl)-3,6-difluoropyridin-2-amine], the IC50 lay in the range of 250 to 1000 nM in test [1] (Homo sapiens, THP1-Dual) and 2.5 to 20 nM in test [2].
On the same counts, the results for `COc1cc2ncc(-c3cccc(NS(C)(=O)=O)c3)n2cc1S(=O)(=O)C(C)(C)C` [Example 261, N-(3-(6-(tert-butylsulfonyl)-7-methoxyimidazo[1,2-a]pyridin-3-yl)phenyl)methanesulfon-amide] are above 1000 nM and 2.5 to 20 nM.
Consider `COc1cc2ncc(-c3cnc(N)c(OC)c3)n2cc1S(=O)(=O)C(C)(C)C` [Example 17, 5-(6-(tert-butylsulfonyl)-7-methoxyimidazo[1,2-a]pyridin-3-yl)-3-methoxypyridin-2-amine], for which the IC50 in test [1] (Homo sapiens, THP1-Dual) was above 1000 nM; in test [2] (setting [3]) it was above 20 nM.
For `COc1cc2ncc(-c3cc(F)c(OC)c(N)c3F)n2cc1S(=O)(=O)C(C)(C)C` [Example 52, 3-(6-(tert-butylsulfonyl)-7-methoxyimidazo[1,2-a]pyridin-3-yl)-2,5-difluoro-6-methoxyaniline], the IC50 in test [1] (Homo sapiens, THP1-Dual) lay within 250 to 1000 nM; in test [2], 2.5 to 20 nM.
Take `COc1cc2ncc(-c3cc(F)nc(NCCCO)c3)n2cc1S(=O)(=O)C(C)(C)C` [Example 183, 3-((4-(6-(tert-butylsulfonyl)-7-methoxyimidazo[1,2-a]pyridin-3-yl)-6-fluoropyridin-2-yl)amino)propan-1-ol]: the IC50 was below 50 nM in test [1] (Homo sapiens, THP1-Dual) and below 1 nM in test [2] (setting [3]).
On the same counts, the results for `CCCS(=O)(=O)Nc1cc(OC)cc(-c2cnc3cc(OCC)c(S(=O)(=O)C(C)C)cn23)c1` [Example 132, N-{3-[7-ethoxy-6-(propane-2-sulfonyl)imidazo[1,2-a]pyridin-3-yl]-5-methoxyphenyl}propane-1-sulfonamide] are 50 to 250 nM and below 1 nM.
On the same counts, the results for `COc1cc2ncc(-c3cccc(S(N)(=O)=O)c3)n2cc1S(=O)(=O)C(C)(C)C` [Example 153, 3-(6-(tert-butylsulfonyl)-7-methoxyimidazo[1,2-a]pyridin-3-yl)benzenesulfonamide] are above 1000 nM and above 20 nM.
On the same counts, the results for `COc1cc2ncc(-c3ccc(F)c(N)c3)n2cc1S(=O)(=O)C(C)(C)C` [Example 127, 5-(6-(tert-butylsulfonyl)-7-methoxyimidazo[1,2-a]pyridin-3-yl)-2-fluoroaniline] are above 1000 nM and above 20 nM.
For the molecule `COc1cc2ncc(-c3cc(F)nc(N[C@H](C)CCO)c3)n2cc1S(=O)(=O)C(C)(C)C` [Example 230, (3R)-3-({6-fluoro-4-[7-methoxy-6-(2-methylpropane-2-sulfonyl)imidazo[1,2-a]pyridin-3-yl]pyridin-2-yl}amino)butan-1-ol], the IC50 was in the range of 250 to 1000 nM in test [1] (Homo sapiens, THP1-Dual) and 2.5 to 20 nM in test [2].
On the same counts, the results for `COc1cc2ncc(-c3ccc(F)c(N)c3F)n2cc1S(=O)(=O)C(C)(C)C` [Example 27, 3-(6-(tert-butylsulfonyl)-7-methoxyimidazo[1,2-a]pyridin-3-yl)-2,6-difluoroaniline] are above 1000 nM and 2.5 to 20 nM.
On to `COc1cc2ncc(-c3cnc(N)c(OC(F)(F)F)c3)n2cc1S(=O)(=O)C(C)(C)C` [Example 88, 5-(6-(tert-butylsulfonyl)-7-methoxyimidazo[1,2-a]pyridin-3-yl)-3-(trifluoromethoxy) pyridin-2-amine], for which the IC50 in test [1] (Homo sapiens, THP1-Dual) was above 1000 nM; in test [2] (setting [3]), above 20 nM.
On to `COc1cc2ncc(-c3cc(F)nc(N[C@H]4CC[C@@H](O)CC4)c3)n2cc1S(=O)(=O)C(C)(C)C` [Example 206, (1s,4s)-4-((4-(6-(tert-butylsulfonyl)-7-methoxyimidazo[1,2-a]pyridin-3-yl)-6-fluoropyridin-2-yl)amino)cyclohexan-1-ol], for which the IC50 was below 50 nM in test [1] and 1 to 2.5 nM in test [2].
As for `CCCS(=O)(=O)Nc1cc(-c2cnc3cc(OC)c(C(C)(C)O)cn23)cc(F)c1OC` [Example 146, N-(3-fluoro-5-(6-(2-hydroxypropan-2-yl)-7-methoxyimidazo[1,2-a]pyridin-3-yl)-2-methoxyphenyl)propane-1-sulfonamide], the IC50 fell in the range of 50 to 250 nM in test [1] (Homo sapiens, THP1-Dual) and 1 to 2.5 nM in test [2].
On to `CCCNc1cc(-c2cnc3cc(OC)c(S(=O)(=O)C(C)(C)C)cn23)cc(F)n1` [Example 181, 4-(6-(tert-butylsulfonyl)-7-methoxyimidazo[1,2-a]pyridin-3-yl)-6-fluoro-N-propylpyridin-2-amine], for which the IC50 is below 50 nM in test [1] (Homo sapiens, THP1-Dual) and below 1 nM in test [2] (setting [3]).
On the same counts, the results for `COc1cc2ncc(-c3ccc(N)nc3OC)n2cc1S(=O)(=O)C(C)(C)C` [Example 79, 5-(6-(tert-butylsulfonyl)-7-methoxyimidazo[1,2-a]pyridin-3-yl)-6-methoxypyridin-2-amine] are above 1000 nM and above 20 nM.
On the same counts, the results for `COc1cc2ncc(-c3cnc(N)c(C#N)c3)n2cc1S(=O)(=O)C(C)(C)C` [Example 23, 2-amino-5-(6-(tert-butylsulfonyl)-7-methoxyimidazo[1,2-a]pyridin-3-yl)nicotinonitrile] are above 1000 nM and above 20 nM.
`COc1cc(-c2cnc3cc(OC)c(S(=O)(=O)C(C)(C)C)cn23)cc(NS(C)(=O)=O)n1` [Example 264, N-(4-(6-(tert-butylsulfonyl)-7-methoxyimidazo[1,2-a]pyridin-3-yl)-6-methoxypyridin-2-yl)methanesulfonamide]: the IC50 in test [1] (Homo sapiens, THP1-Dual) fell in the range of 250 to 1000 nM; in test [2] it was 2.5 to 20 nM.
Consider `COc1cc2ncc(-c3cc(F)cc(F)n3)n2cc1S(=O)(=O)C(C)(C)C` [Example 61, 6-(tert-butylsulfonyl)-3-(4,6-difluoropyridin-2-yl)-7-methoxyimidazo[1,2-a]pyridine], for which the IC50 is 250 to 1000 nM in test [1] (Homo sapiens, THP1-Dual) and above 20 nM in test [2] (setting [3]).
On the same counts, the results for `COc1cc2ncc(-c3cc(N)c(=O)n(C(F)F)c3)n2cc1S(=O)(=O)C(C)(C)C` [Example 328, 3-amino-5-(6-(tert-butylsulfonyl)-7-methoxyimidazo[1,2-a]pyridin-3-yl)-1-(difluoromethyl) pyridin-2(1H)-one] are above 1000 nM and above 20 nM.
For the molecule `COc1cc2ncc(-c3cc(F)nc(NCCC4(O)COC4)c3)n2cc1S(=O)(=O)C(C)(C)C` [Example 213, 3-(2-((4-(6-(tert-butylsulfonyl)-7-methoxyimidazo[1,2-a]pyridin-3-yl)-6-fluoropyridin-2-yl)amino)ethyl)oxetan-3-ol], the half-inhibitory concentration (IC50) in test [1] (Homo sapiens, THP1-Dual) lay within 250 to 1000 nM; in test [2], 2.5 to 20 nM.
On the same counts, the results for `CCCS(=O)(=O)Nc1cc(-c2cnc3cc(OC)c(C(=O)N(C)C)cn23)cc(OC)c1OC` [Example 137, 3-[3,4-dimethoxy-5-(propane-1-sulfonamido)phenyl]-7-methoxy-N,N-dimethylimidazo[1,2-a]pyridine-6-carboxamide] are 250 to 1000 nM and 2.5 to 20 nM.
Consider `COc1cc2ncc(-c3ccc(N4CCCC4=O)nc3)n2cc1S(=O)(=O)C(C)(C)C` [Example 67, 1-(5-(6-(tert-butylsulfonyl)-7-methoxyimidazo[1,2-a]pyridin-3-yl)pyridin-2-yl)pyrrolidin-2-one], for which the IC50 was above 1000 nM in test [1] (Homo sapiens, THP1-Dual) and above 20 nM in test [2] (setting [3]).
`COc1cc2ncc(-c3cc(N)c(=O)n(C)c3)n2cc1S(=O)(=O)C(C)(C)C` [Example 7, 3-amino-5-(6-(tert-butylsulfonyl)-7-methoxyimidazo[1,2-a]pyridin-3-yl)-1-methylpyridin-2(1H)-one]: the IC50 in test [1] (Homo sapiens, THP1-Dual) was 250 to 1000 nM; in test [2], 2.5 to 20 nM.
